Experimental data from US10729759B2, “Fluorocarbon-linked peptide formulation” (priority 2010, dated 2020).
“Also recorded” adds a separate entry of the source. Read-outs that look alike come from different tables or passages of the source.

How the values were obtained:
[1] = for Ease of solubility, Cycle 1 Vortexing: 10 mg net/ml in 10% (FCP1, 2, 4, 5) or 80% (FCP9, 8) acetic acid; for Ease of solubility, Cycle 1 Sonication / Ease of solubility, Cycle 2 Sonication / Ease of solubility, Cycle 2 Vortexing / Ease of solubility, Cycle 3 Sonication / Ease of solubility, Cycle 3 Vortexing: 10 mg net/ml in 10% or 80% acetic acid; for Visual appearance after dispersion: 10 mg net/ml in AcOH 10% or 80%
[2] = assay type: physicochemical; conditions: 1.33% mannitol, 0.22 μm PVDF filter; for YIELD % of each FCP following sterile filtration, MIX 2: MIX 2 dispersed in water
[3] = assay type: physicochemical; conditions: for Percentage acetic acid (% v/v): minimum concentration for acceptable dispersibility and solubility: FCP 2 μmol/ml after acetic acid dispersion; for Visual appearance after dispersion: at the listed acetic acid concentration, FCP 2 μmol/ml
Procedure: In order to limit the concentration of acetic acid downstream in the formulation process and in the final product, the lowest concentration of acetic acid in water to achieve efficient dispersion and maintain visible solubility was determined for each fluorocarbon-linked peptide. When using mannitol as a cryprotectant, it is important to minimize the acetic acid concentration at the lyophilisation stage in order to achieve a stable and amorphous freeze-dried product. The minimum acetic acid concentration to achieve acceptable dispersibility and solubility of the individual fluorocarbon-linked peptides was determined. The final concentration of fluorocarbon-linked peptide after initial acetic acid dispersion was 2 μmol/ml and after dilution with mannitol, 0.250 μmol/ml.

[4] = assay type: physicochemical; conditions: for Further dilution in Mannitol:Water Solubility: FCP 0.167 mM, 1.33% (w/v) mannitol, cloudiness / particulates; for Dispersion in Water Solubility: FCP 1.333 mM in water, vortexed and sonicated, cloudiness (Clear/Cloudy−/Cloudy/Cloudy+) / particulates
Procedure: The solubility of each FCP in water was assessed. Each FCP was dispersed in 300 μl of water to a final concentration of 1.333 mM and vortexed and sonicated. The typical dispersion conditions were four sequences of three minutes bath sonication interspersed by 30 seconds vortexing. After inspection, the resulting solution was diluted with a mannitol solution (a candidate lyophilisation medium, final concentration of peptide 0.167 mM, 1.33% (w/v) mannitol). Solubility was assessed by visual observation of the cloudiness of the resulting dispersion (scaled: Clear/Cloudy−/Cloudy/Cloudy+) and presence of particulates. […]

SMILES	Ease of solubility, Cycle 1 Vortexing [1]	Ease of solubility, Cycle 1 Sonication [1]	Ease of solubility, Cycle 2 Sonication [1]	Ease of solubility, Cycle 2 Vortexing [1]	Ease of solubility, Cycle 3 Sonication [1]	Ease of solubility, Cycle 3 Vortexing [1]	Visual appearance after dispersion [1]	YIELD % of each FCP following sterile filtration, MIX 2 [2] [%]	Percentage acetic acid (% v/v): minimum concentration for acceptable dispersibility and solubility [3] [% v/v]	Visual appearance after dispersion [3]	Further dilution in Mannitol:Water Solubility [4]	Dispersion in Water Solubility [4]	YIELD % of each FCP following sterile filtration, MIX 1 ([2]; MIX 1 dispersed in water) [%]
CC[C@H](C)[C@H](NC(=O)[C@@H]1CCCN1C(=O)[C@H](C)NC(=O)[C@@H](N)CCCCNC(=O)CCC(F)(F)C(F)(F)C(F)(F)C(F)(F)C(F)(F)C(F)(F)C(F)(F)C(F)(F)F)C(=O)N[C@@H](CCSC)C(=O)N[C@@H](Cc1ccccc1)C(=O)N[C@@H](CO)C(=O)N[C@@H](CC(N)=O)C(=O)N[C@@H](CCCCN)C(=O)N[C@@H](CCSC)C(=O)N[C@@H](C)C(=O)N[C@@H](CCCNC(=N)N)C(=O)N[C@@H](CC(C)C)C(=O)NCC(=O)N[C@@H](CCCCN)C(=O)NCC(=O)N[C@@H](Cc1ccc(O)cc1)C(=O)N[C@@H](CCSC)C(=O)N[C@@H](Cc1ccccc1)C(=O)N[C@@H](CCC(=O)O)C(=O)N[C@@H](CO)C(=O)N[C@@H](CCCCN)C(=O)N[C@@H](CCCNC(=N)N)C(=O)N[C@@H](CCSC)C(=O)N[C@@H](CCCCN)C(=O)N[C@@H](CC(C)C)C(=O)N[C@@H](CCCNC(=N)N)C(=O)N[C@H](C(=O)N[C@@H](CCC(N)=O)C(=O)N[C@H](C(=O)N1CCC[C@H]1C(=O)N[C@@H](C)C(=O)N[C@@H](CCC(=O)O)C(=O)N[C@@H](CCSC)C(=O)N[C@@H](CC(C)C)C(=O)N[C@@H](C)C(N)=O)[C@@H](C)CC)[C@@H](C)O [FCP2]	Clear	Clear	Clear	Clear	Clear	Clear	Clear	97.3	10	Clear	fully soluble; also recorded: Clear/No Particulates	Cloudy−/No Particulates	–
CC[C@H](C)[C@H](NC(=O)[C@H](CC(C)C)NC(=O)[C@H](C)NC(=O)[C@H](CO)NC(=O)[C@H](CCCNC(=N)N)NC(=O)[C@H](C)NC(=O)[C@H](CC(C)C)NC(=O)[C@H](Cc1ccccc1)NC(=O)[C@@H](NC(=O)[C@H](CC(C)C)NC(=O)[C@H](CC(=O)O)NC(=O)[C@H](CCC(=O)O)NC(=O)[C@@H](NC(=O)[C@H](CCC(=O)O)NC(=O)[C@H](C)NC(=O)[C@H](CC(N)=O)NC(=O)CNC(=O)[C@@H]1CCCN1C(=O)[C@H](CC(N)=O)NC(=O)[C@H](CCCNC(=N)N)NC(=O)[C@H](CO)NC(=O)[C@H](CCC(=O)O)NC(=O)[C@H](CCCNC(=N)N)NC(=O)[C@@H](NC(=O)[C@H](CCC(N)=O)NC(=O)[C@H](CC(=O)O)NC(=O)[C@@H](N)CCCCNC(=O)CCC(F)(F)C(F)(F)C(F)(F)C(F)(F)C(F)(F)C(F)(F)C(F)(F)C(F)(F)F)C(C)C)[C@@H](C)CC)[C@@H](C)CC)C(=O)N[C@@H](CC(C)C)C(=O)N[C@@H](CCCNC(=N)N)C(=O)NCC(=O)N[C@@H](CO)C(=O)N[C@H](C(=O)N[C@@H](C)C(=O)N[C@@H](Cc1c[nH]cn1)C(=O)N[C@@H](CCCCN)C(=O)N[C@@H](CO)C(N)=O)C(C)C [FCP4]	Clear	Clear	Clear	Clear	Clear	Clear	Clear	82.3	10	Clear	fully soluble; also recorded: Clear/No Particulates	fully soluble; also recorded: Clear/No Particulates	25.1
